Values joined by “and” are separate entries in the source; they are usually repeats but may differ in a detail not shown here. Identical values can stand only once. Inconclusive results and toxic doses are left out. How the source made its calls: active means survival T/C of 150% or more; inactive means T/C below 125% in these data.
System: CD2F1 mice, L1210 leukemia ip, survival T/C
Test: NCI In Vivo Anticancer Drug Screen. Data for tumor model L1210 Leukemia (intraperitoneal) in CD2F1 (CDF1) mice
Conditions: higher = longer survival
How it was run: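 Transplantable tumor in mice; compound-treated vs vehicle-treated groups. Read-out = treated/control ratio of the measured endpoint.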

[1] = endpoint: mean survival time, dose: 100.0 mg/kg/injection, schedule: Q01DX001 (ip), vehicle: saline with Tween-80
[2] = endpoint: mean survival time, dose: 100.0 mg/kg/injection, schedule: Q04DX002 (ip), vehicle: saline with Tween-80
[3] = endpoint: mean survival time, dose: 200.0 mg/kg/injection, schedule: Q01DX001 (ip), vehicle: saline with Tween-80
[4] = endpoint: mean survival time, dose: 200.0 mg/kg/injection, schedule: Q04DX002 (ip), vehicle: saline with Tween-80
[5] = endpoint: mean survival time, dose: 400.0 mg/kg/injection, schedule: Q01DX001 (ip), vehicle: saline with Tween-80
[6] = endpoint: mean survival time, dose: 400.0 mg/kg/injection, schedule: Q04DX002 (ip), vehicle: saline with Tween-80
[7] = endpoint: mean survival time, dose: 100.0 mg/kg/injection, schedule: Q04DX003 (ip), vehicle: saline with Tween-80
[8] = endpoint: mean survival time, dose: 200.0 mg/kg/injection, schedule: Q04DX003 (ip), vehicle: saline with Tween-80
[9] = endpoint: mean survival time, dose: 400.0 mg/kg/injection, schedule: Q04DX003 (ip), vehicle: saline with Tween-80
[10] = endpoint: mean survival time, dose: 25.0 mg/kg/injection, schedule: Q04DX002 (ip), vehicle: saline with Tween-80
[11] = endpoint: mean survival time, dose: 50.0 mg/kg/injection, schedule: Q04DX002 (ip), vehicle: saline with Tween-80
[12] = endpoint: mean survival time, dose: 100.0 mg/kg/injection, schedule: Q01DX009 (ip), vehicle: saline with Tween-80

Measured: T/C

CC1(C)OC2C(COC(=O)Oc3ccccc3)OC(n3cnc4c(=O)[nH]cnc43)C2O1 (centres undefined)
inactive: [1] 101 % of control | [2] 102 % of control | [3] 97 % of control | [4] 94 % of control | [5] 94 % of control | [6] 97 % of control

Nc1nc(N)c2nc3c(nc2n1)CCCC3
inactive: [1] 95 % of control | [3] 87 % of control | [5] 87 % of control

CC(=O)Nc1ccc2c(c1)C(P(=O)(OC(C)C)OC(C)C)c1ccccc1-2 (centres undefined)
inactive: [7] 95 % of control | [8] 95 % of control | [9] 92 % of control

COc1cc([N+](=O)[O-])c(C)[n+]([O-])n1
inactive: [10] 96 % of control | [11] 104 % of control

O=[N+]([O-])c1ccc(Cl)c(CNc2ncnc3c2ncn3C2CCCCO2)c1 (centres undefined)
inactive: endpoint: mean survival time, dose: 100.0 mg/kg/injection, schedule: Q01DX009 (ip), vehicle: acetone 95 % of control | endpoint: mean survival time, dose: 200.0 mg/kg/injection, schedule: Q01DX009 (ip), vehicle: acetone 97 % of control | endpoint: mean survival time, dose: 400.0 mg/kg/injection, schedule: Q01DX009 (ip), vehicle: acetone 93 % of control

CCOC(=O)NC(=S)n1ncnc1N
inactive: endpoint: mean survival time, dose: 12.5 mg/kg/injection, schedule: Q04DX003 (ip), vehicle: saline 97 % of control | endpoint: mean survival time, dose: 25.0 mg/kg/injection, schedule: Q04DX003 (ip), vehicle: saline 102 % of control

COc1ccc2c(c1)N(CC(C)C[N+](C)(C)CCCCCCCCCCCCCCCC[N+](C)(C)CC(C)CN1c3ccccc3Sc3ccc(OC)cc31)c1ccccc1S2 (centres undefined)
inactive: endpoint: mean survival time, dose: 100.0 mg/kg/injection, schedule: Q04DX003 (ip), vehicle: saline 91 % of control | endpoint: mean survival time, dose: 200.0 mg/kg/injection, schedule: Q04DX003 (ip), vehicle: saline 91 % of control

Clc1nnc(Nc2ccccc2)c2ccccc12
inactive: endpoint: mean survival time, dose: 100.0 mg/kg/injection, schedule: Q04DX003 (ip), vehicle: other 94 % of control | endpoint: mean survival time, dose: 200.0 mg/kg/injection, schedule: Q04DX003 (ip), vehicle: other 88 % of control | endpoint: mean survival time, dose: 400.0 mg/kg/injection, schedule: Q04DX003 (ip), vehicle: other 88 % of control

Cc1ccc(Cl)cc1NC(=O)c1c(Br)c(Br)c(Br)c(Br)c1C(=O)O
inactive: [1] 106 % of control | [3] 110 % of control | [5] 108 % of control

NC1=NC2OC(CO)C(O)C2O1 (centres undefined)
inactive: [12] 105 % of control | endpoint: mean survival time, dose: 200.0 mg/kg/injection, schedule: Q01DX009 (ip), vehicle: saline with Tween-80 100 % of control | endpoint: mean survival time, dose: 400.0 mg/kg/injection, schedule: Q01DX009 (ip), vehicle: saline with Tween-80 102 % of control | endpoint: median survival time, dose: 100.0 mg/kg/injection, schedule: Q04DX003 (ip), vehicle: saline with Tween-80 100 % of control | endpoint: median survival time, dose: 200.0 mg/kg/injection, schedule: Q04DX003 (ip), vehicle: saline with Tween-80 100 % of control | endpoint: median survival time, dose: 400.0 mg/kg/injection, schedule: Q04DX003 (ip), vehicle: saline with Tween-80 100 % of control

CCSC1=NCCCS1
inactive: endpoint: mean survival time, dose: 75.0 mg/kg/injection, schedule: Q01DX001 (ip), vehicle: other 97 % of control | endpoint: mean survival time, dose: 150.0 mg/kg/injection, schedule: Q01DX001 (ip), vehicle: other 98 % of control | endpoint: mean survival time, dose: 300.0 mg/kg/injection, schedule: Q01DX001 (ip), vehicle: other 95 % of control

CCOC(=O)Cc1nc2ccccc2[nH]1
inactive: [1] 95 % of control | [2] 101 % of control | [7] 90 % of control and 102 % of control | [3] 95 % of control | [4] 93 % of control | [8] 93 % of control and 97 % of control | [5] 93 % of control | [6] 95 % of control | [9] 91 % of control

O=C(c1ccc2ccccc2c1O)N1CCCCC1
inactive: [7] 101 % of control | [8] 103 % of control | [9] 101 % of control

CC(C)C(O)c1ccccc1 (centres undefined)
inactive: endpoint: mean survival time, dose: 12.5 mg/kg/injection, schedule: Q01DX009 (ip), vehicle: saline with Tween-80 103 % of control | endpoint: mean survival time, dose: 25.0 mg/kg/injection, schedule: Q01DX005 (ip), vehicle: saline with Tween-80 92 % of control | endpoint: mean survival time, dose: 25.0 mg/kg/injection, schedule: Q01DX009 (ip), vehicle: saline with Tween-80 106 % of control | endpoint: mean survival time, dose: 50.0 mg/kg/injection, schedule: Q01DX005 (ip), vehicle: saline with Tween-80 95 % of control | endpoint: mean survival time, dose: 50.0 mg/kg/injection, schedule: Q01DX009 (ip), vehicle: saline with Tween-80 95 % of control | [11] 108 % of control | endpoint: mean survival time, dose: 100.0 mg/kg/injection, schedule: Q01DX005 (ip), vehicle: saline with Tween-80 88 % of control | [12] 88 % of control | [2] 101 % of control | [4] 89 % of control

CC(C)CC(NC(=O)CN)C(=O)O (centres undefined)
inactive: endpoint: mean survival time, dose: 100.0 mg/kg/injection, schedule: Q04DX002 (ip), vehicle: saline 93 % of control | endpoint: mean survival time, dose: 200.0 mg/kg/injection, schedule: Q04DX002 (ip), vehicle: saline 96 % of control | endpoint: mean survival time, dose: 400.0 mg/kg/injection, schedule: Q04DX002 (ip), vehicle: saline 107 % of control

CC(=O)Oc1ccc2c3c(ccc2c1)CCCC3
inactive: endpoint: mean survival time, dose: 25.0 mg/kg/injection, schedule: Q01DX009 (ip), vehicle: Klucel (hydroxypropylcellulose) (HPC) 116 % of control | endpoint: mean survival time, dose: 50.0 mg/kg/injection, schedule: Q01DX009 (ip), vehicle: Klucel (hydroxypropylcellulose) (HPC) 93 % of control | endpoint: mean survival time, dose: 100.0 mg/kg/injection, schedule: Q01DX009 (ip), vehicle: Klucel (hydroxypropylcellulose) (HPC) 104 % of control

O=c1oc(-c2cccc([N+](=O)[O-])c2)nc2ccccc12
inactive: [7] 100 % of control | [8] 88 % of control

Cc1cc(Oc2ccc(Cl)cc2NC(=O)Nc2ccc(Cl)c(Cl)c2)c(S(=O)(=O)O)cc1Cl
inactive: endpoint: mean survival time, dose: 100.0 mg/kg/injection, schedule: Q01DX001 (ip), vehicle: acetone 94 % of control | endpoint: mean survival time, dose: 200.0 mg/kg/injection, schedule: Q01DX001 (ip), vehicle: acetone 94 % of control | endpoint: mean survival time, dose: 400.0 mg/kg/injection, schedule: Q01DX001 (ip), vehicle: acetone 93 % of control

CC1(CO)CCCC2(C)C3=C(CCCC3)CCC12 (centres undefined)
inactive: endpoint: mean survival time, dose: 50.0 mg/kg/injection, schedule: Q04DX003 (ip), vehicle: saline with Tween-80 97 % of control | [7] 101 % of control | [8] 97 % of control

c1ccc(C[P+](c2ccccc2)(c2ccccc2)c2ccccc2)cc1
inactive: endpoint: mean survival time, dose: 0.63 mg/kg/injection, schedule: Q01DX009 (ip), vehicle: saline with Tween-80 89 % of control | endpoint: mean survival time, dose: 1.25 mg/kg/injection, schedule: Q01DX009 (ip), vehicle: saline with Tween-80 100 % of control | endpoint: mean survival time, dose: 2.5 mg/kg/injection, schedule: Q01DX009 (ip), vehicle: saline with Tween-80 93 % of control

c1ccc(Sc2ccncc2)cc1
inactive: [10] 102 % of control | [11] 91 % of control | [2] 98 % of control and 105 % of control

CN(C)CCCNc1cccc2c1C(=O)c1cccc(NCCCN(C)C)c1C2=O
inactive: endpoint: mean survival time, dose: 8.0 mg/kg/injection, schedule: Q01DX009 (ip), vehicle: acid diluted with saline 102 % of control | endpoint: mean survival time, dose: 16.0 mg/kg/injection, schedule: Q01DX009 (ip), vehicle: acid diluted with saline 102 % of control | endpoint: mean survival time, dose: 32.0 mg/kg/injection, schedule: Q01DX009 (ip), vehicle: acid diluted with saline 106 % of control | endpoint: mean survival time, dose: 64.0 mg/kg/injection, schedule: Q01DX009 (ip), vehicle: acid diluted with saline 100 % of control

COC(=O)c1ccc(C2CCC(OC(c3ccccc3)c3ccccc3)CC2)cc1 (centres undefined)
inactive: [8] 89 % of control | [9] 91 % of control

Reference: PubChem BioAssay AID256 (DTP/NCI, 2004)
